Results on three compounds are retold here after publication PMC10041529 (Journal of Medicinal Chemistry, 2023).

Molecules are shown by their SMILES.

Experiment [1] concerns CLK3. Also noted: method as in PMID 21870818. The conditions noted are these: at 500 nM; cited from earlier work.
For experiment [2], the system named is HIPK3. Further details: method as in PMID 21870818. The settings on record: at 500 nM; cited from earlier work.
The test system of experiment [3] is calcineurin/NFAT pathway with overexpressed DYRK1A. Kind of experiment: NFAT translocation assay (EGFP-NFATc1 imaging) in HEK293T cells. The class given is cell-based, human. The settings on record: 5 μM pretreatment 3 h, ionomycin 1 h.
In experiment [4] the test system is DYRK1A. Further details: method as in PMID 29191878. The settings on record: cell lysates; Table S2 of ref 38; read-out: EC50 (Kinobeads); cited from earlier work.
Experiment [5] deals with T1, DYRK1A kinase domain (126–490) (Homo sapiens, UniProt Q13627).
T1 construct: The recombinant kinase domains of DYRK1A (126–490) and GSK3β (26–383), both with C-terminal His-tag extension; made in house; host or cells: E. coli LOBSTR
Nature of the experiment: Microscale thermophoresis (MST) direct binding assay. The settings on record: CK2α vs DYRK1A. In general terms: Microscale thermophoresis detects binding through changes in fluorescence in a small temperature gradient.

Experiment [6] relates to calcineurin/NFAT pathway with overexpressed GSK3β. Kind of experiment: NFAT translocation assay (EGFP-NFATc1 imaging) in HEK293T cells. The experiment is classed as cell-based, human. The conditions noted are these: pretreatment 3 h, ionomycin 1 h. The source says:
One of the important cellular targets of DYRK1A and GSK3β is the NFAT (Nuclear factor of activated T-cells) transcription factor, which plays a major role in regulating the cell cycle.[52] The calcineurin/NFAT signaling controlled by DYRK1A and GSK3β activity is an important target for neurodegenerative processes and β-cell proliferation. Both kinases inactivate NFAT’s transcription factor by phosphorylation of its nuclear pool, which leads to cytosolic export. […] In unstimulated cells, EGFP-NFAT stayed predominantly in the cytosol, and only after stimulation with ionomycin, the nuclear translocation and accumulation of EGFP-NFAT were observed (Figure 4). Overexpression of any of the kinases blocked the nuclear accumulation of EGFP-NFAT upon cell stimulation, proving the negative regulation of the calcineurin/NFAT pathway by DYRK1A or GSK3β.
EGFP-NFATc1 (green) was cotransfected with either a mock vector, DYRK1A (red), or GSK3β (red) into HEK293T cells.
HEK293T cells were grown on a μ-Slide 8 well (IBIDI) to 50%–70% confluency. The plasmids expressing the desired proteins, mCherry-DYRK1A or mCherry-GSK3β and eGFP-NFATc1, were transiently cotransfected for 24 h with PEI Prime (Sigma-Aldrich). […] Images were collected with a Zeiss Axio Observer 3 fluorescence microscope and analyzed in ZEN Blue edition software.

Experiment [7] deals with CK2α. Also noted: method as in PMID 21870818. The settings on record: at 500 nM; cited from earlier work.
Experiment [8] addresses T2, DYRK1A-mediated phosphorylation of Cyclin D1 (Homo sapiens, UniProt Q13627).
T2 construct: expressed in transfected cells; host or cells: HEK293T (pcDNA3.1, transient)
Kind of experiment: Cyclin D1 phosphorylation profile (Western Blot) in transfected HEK293T cells. The class given is cell-based. The settings on record: HA-Cyclin D1 + FLAG-DYRK1A, 10 μM, 3 h. A general note: Immunoblotting shows a protein as a band on a membrane.

Experiment [9] relates to DYRK2. Also noted: method as in PMID 21870818. The settings on record: at 500 nM; cited from earlier work.
Experiment [10] relates to GSK3β. Also noted: method as in PMID 21870818. The conditions noted are these: at 500 nM; cited from earlier work.
Experiment [11] has as its target T3, GSK3β-mediated phosphorylation of Cyclin D1 (Homo sapiens, UniProt P49841).
T3 construct: we used only GSK3β (26–383) kinase domain constructs in our cellular studies; expressed in transfected cells; host or cells: HEK293T (pcDNA3.1, transient)
Kind of experiment: Cyclin D1 phosphorylation profile (Western Blot) in transfected HEK293T cells. The class given is cell-based. The settings on record: HA-Cyclin D1 + FLAG-GSK3β, 10 μM, 3 h.

T3 sequence (P49841 26-383): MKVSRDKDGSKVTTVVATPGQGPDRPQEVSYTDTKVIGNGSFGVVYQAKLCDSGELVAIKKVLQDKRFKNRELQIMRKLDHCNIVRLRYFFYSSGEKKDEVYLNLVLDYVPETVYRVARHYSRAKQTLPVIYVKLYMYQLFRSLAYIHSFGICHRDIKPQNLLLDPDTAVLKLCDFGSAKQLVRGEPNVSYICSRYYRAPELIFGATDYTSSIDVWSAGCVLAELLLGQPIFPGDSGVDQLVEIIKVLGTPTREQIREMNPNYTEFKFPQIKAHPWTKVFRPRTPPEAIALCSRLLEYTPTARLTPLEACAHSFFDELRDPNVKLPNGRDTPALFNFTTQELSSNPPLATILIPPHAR

A word on the EC50: it is the concentration that produces a half-maximal response. Turning to `O=C(O)c1ccc2c(c1)nc(Nc1cccc(Cl)c1)c1ccncc12` [CX-4945, 5-(3-Chlorophenylamino)benzo[c][2,6]naphthyridine-8-carboxylic Acid], the “inhibition of CLK3” value in [1] is “more than 90%”. In [2], the “inhibition of HIPK3” value is on record as “more than 90%”. Further, the “nuclear translocation of EGFP-NFAT despite overexpressed DYRK1A” value in experiment [3] is reported as “restore the calcineurin/NFAT pathway”. The EC50 in experiment [4] was […]. In experiment [5], the “difference in binding between CK2α and DYRK1A” value is 5 fold. The “nuclear translocation of EGFP-NFAT despite overexpressed GSK3β” value in experiment [6] is given as “reversed the effect of GSK3β-controlled NFAT cellular localization”. Moreover, in experiment [7], the “inhibition of CK2α” value is “more than 90%”. Besides, in experiment [8], the “effect on DYRK1A-mediated Cyclin D1 phosphorylation” value was “complete inhibition”. For the same compound, the “inhibition of DYRK2” value in experiment [9] was “more than 95%”. For the same compound, the “inhibition of GSK3β” value in [10] is recorded as 55%.
Take `COc1ccc2c(c1)[nH]c1c(C)nccc12` [harmine]: the “nuclear translocation of EGFP-NFAT despite overexpressed DYRK1A” value in [3] was “restore the calcineurin/NFAT pathway”. For the same compound, the “effect on DYRK1A-mediated Cyclin D1 phosphorylation” value in [8] was “fully abolished”.
As to `O=C1Cc2c([nH]c3ccc(Br)cc23)-c2ncccc2N1` [1-azakenpaullone], the “effect on GSK3β-mediated Cyclin D1 phosphorylation” value in [11] is reported as “same effect”. Moreover, in [6], the “nuclear translocation of EGFP-NFAT despite overexpressed GSK3β” value is “reversed the effect of GSK3β-controlled NFAT cellular localization”.
